The source of these data is patent US9700546B2, “Trivalent chromium compounds, compositions and methods of use” (INTERHEALTH NUTRACEUTICALS, INC., priority 2006, dated 2017).

The test system of assay [1] is Obese Zucker rats. Nature of the assay: In vivo assessment in obese Zucker rats: body weight and food intake. The settings on record: obese Zucker rats, daily 400 μg Cr(III)/kg, mean; for Food Intake 5 wks: at 5 weeks; for Food Intake 7 wks: at 7 weeks.
The test system of assay [2] is Obese Zucker rats. Nature of the assay: In vivo assessment in obese Zucker rats: blood lipid profile (total cholesterol, triglycerides, HDL). The following applies: daily 400 μg Cr(III)/kg, 8 weeks, mean.
Assay [3] has as its system Obese Zucker rats. Nature of the assay: In vivo assessment in obese Zucker rats: other vascular inflammation markers (cAMP, TNFα, IL-6, OxyDNA). The following applies: obese Zucker rats, daily 400 μg Cr(III)/kg, 8 weeks, mean ± SE; for OxyDNA: oxidative DNA damage.
The test system of assay [4] is Obese Zucker rats. Nature of the assay: In vivo assessment in obese Zucker rats: vascular inflammation markers (MCP-1, CRP, RBP-4, leptin, ICAM, adiponectin). The following applies: obese Zucker rats, daily 400 μg Cr(III)/kg, 8 weeks, mean; for Adiponectin / CRP / ICAM / MCP-1: plasma, ELISA. (In general: An ELISA detects its analyte on a solid surface through an enzyme-linked reagent.)

Assay [5] relates to Obese Zucker rats. The assay can be described thus: In vivo assessment in obese Zucker rats: key biological parameters (fasting glucose, HbA1c, vitamin C, GSH, RBC lipid peroxidation). The following applies: obese Zucker rats, daily 400 μg Cr(III)/kg, 8 weeks, mean; for RBC Lipid Peroxidase: malondialdehyde by thiobarbituric acid; for Fasting Glucose: fasted overnight; for Vitamin C: plasma.

With “Chromium Dinicotinate Argininate [Cr(nic)2Arg]”, in assay [1], the “Food Intake 5 wks” value stood at 40.22 g/day and the “Food Intake 7 wks” value turned out to be 45.28 g/day. Further, in assay [2], the HDL was found to be 69.78 mg/dL, the “Total Chol/HDL” value is given as 3.00 ratio, the “Total Cholesterol” value worked out at 186.16 mg/dL and the Triglyceride came to 554.65 mg/dL. Also, in assay [3], the IL-6 was determined as 92.35 ± 2.79 pg/mL, the TNFα stood at 17.84 ± 1.26 pg/mL, the cAMP was 38.96 ± 3.88 pmol/mL and the OxyDNA is given as 58.26 ± 2.57 ng/mL. In assay [4], this substance yielded a Leptin of 335.80 pg/mL, an RBP-4 of 52537.50 ng/mL, an Adiponectin of 9279.38 ng/mL and a CRP of 628.49 ng/mL. Further, in assay [4], the ICAM worked out at 18591.76 pg/mL and the MCP-1 was 3235.62 pg/mL. In assay [5], the “RBC Lipid Peroxidase” value amounted to 2.47 nmol/mL, the “Fasting Glucose” value worked out at 628.87 mg/dL, the GSH came out at 4.89 µmol/g and the HbA1c was found to be 16.56%. The “Vitamin C” value in assay [5] is listed as 0.14 mg %.
On to “Chromium Dinicotinate Aspartate [Cr(nic)2Asp]”, for which, in assay [1], the “Food Intake 5 wks” value was 38.90 g/day and the “Food Intake 7 wks” value was 40.00 g/day. Moreover, in assay [2], the HDL is 70.17 mg/dL, the “Total Chol/HDL” value is on record as 2.88 ratio, the “Total Cholesterol” value was determined as 202.17 mg/dL and the Triglyceride is on record as 699.67 mg/dL. Further, in assay [3], the IL-6 is 88.91 ± 2.25 pg/mL, the cAMP is reported as 27.95 ± 1.22 pmol/mL and the OxyDNA worked out at 41.92 ± 1.46 ng/mL. In assay [4], the Leptin worked out at 406.15 pg/mL, the RBP-4 worked out at 57870.00 ng/mL, the Adiponectin was found to be 12078.33 ng/mL and the CRP came out at 602.51 ng/mL. In assay [4], the ICAM was determined as 17985.91 pg/mL and the MCP-1 amounted to 1431.68 pg/mL. Further, in assay [5], the “RBC Lipid Peroxidase” value was found to be 2.02 nmol/mL, the “Fasting Glucose” value is listed as 496.33 mg/dL, the GSH was determined as 5.15 µmol/g and the HbA1c amounted to 15.62%. The “Vitamin C” value in assay [5] was found to be 0.12 mg %.
Take “Chromium Dinicotinate Glycinate [Cr(nic)2Gly, reference compound]”: in assay [1], the “Food Intake 5 wks” value is 34.29 g/day and the “Food Intake 7 wks” value came out at 37.14 g/day. For the same substance, in assay [2], the HDL stood at 64.57 mg/dL, the “Total Chol/HDL” value stood at 3.00 ratio, the “Total Cholesterol” value was found to be 193.14 mg/dL and the Triglyceride came to 610.33 mg/dL. In assay [3], this substance returned an IL-6 of 91.96 ± 3.83 pg/mL, a cAMP of 31.40 ± 1.57 pmol/mL and an OxyDNA of 45.62 ± 1.86 ng/mL. In assay [4], the Leptin is listed as 461.16 pg/mL, the RBP-4 was 54900.00 ng/mL, the Adiponectin amounted to 12552.86 ng/mL and the CRP was 535.98 ng/mL. In addition, in assay [4], the ICAM amounted to 16691.40 pg/mL and the MCP-1 came to 2897.61 pg/mL. Besides, in assay [5], the “RBC Lipid Peroxidase” value was determined as 2.11 nmol/mL, the “Fasting Glucose” value turned out to be 448.29 mg/dL, the GSH was determined as 4.86 µmol/g and the HbA1c worked out at 14.45%. The “Vitamin C” value in assay [5] is given as 0.15 mg %.
In the case of “Chromium Dinicotinate Phenylalanine [Cr(nic)2Phe]”, in assay [1], the “Food Intake 5 wks” value turned out to be 38.16 g/day and the “Food Intake 7 wks” value is listed as 39.22 g/day. Further, in assay [2], the HDL is listed as 70.43 mg/dL, the “Total Chol/HDL” value was found to be 2.87 ratio, the “Total Cholesterol” value was 201.71 mg/dL and the Triglyceride came out at 583.00 mg/dL. In assay [3], this substance returned an IL-6 of 84.82 ± 1.60 pg/mL, a cAMP of 31.60 ± 1.22 pmol/mL and an OxyDNA of 40.63 ± 3.74 ng/mL. In assay [4], this substance had a Leptin of 351.16 pg/mL, an RBP-4 of 53891.43 ng/mL, an Adiponectin of 12712.86 ng/mL and a CRP of 633.55 ng/mL. For the same substance, in assay [4], the ICAM was determined as 17480.50 pg/mL and the MCP-1 is 1755.25 pg/mL. Moreover, in assay [5], the “RBC Lipid Peroxidase” value is 1.97 nmol/mL, the “Fasting Glucose” value is reported as 510.43 mg/dL, the GSH came out at 5.05 µmol/g and the HbA1c turned out to be 15.95%. The “Vitamin C” value in assay [5] is 0.15 mg %.
Regarding “Chromium Dinicotinate Tryptophanate [Cr(nic)2Trp]”, in assay [1], the “Food Intake 5 wks” value amounted to 40.49 g/day and the “Food Intake 7 wks” value came to 40.78 g/day. In assay [2], the HDL was 69.43 mg/dL, the “Total Chol/HDL” value turned out to be 2.86 ratio, the “Total Cholesterol” value turned out to be 183.17 mg/dL and the Triglyceride came to 470.67 mg/dL. In assay [3], this substance displayed an IL-6 of 92.09 ± 1.89 pg/mL, a cAMP of 30.36 ± 1.48 pmol/mL and an OxyDNA of 39.35 ± 3.48 ng/mL. In assay [4], the Leptin came to 363.21 pg/mL, the RBP-4 stood at 60017.14 ng/mL, the Adiponectin came out at 11752.86 ng/mL and the CRP turned out to be 617.66 ng/mL. In assay [4], this substance displayed an ICAM of 17950.97 pg/mL and an MCP-1 of 2607.07 pg/mL. Further, in assay [5], the “RBC Lipid Peroxidase” value stood at 1.96 nmol/mL, the “Fasting Glucose” value was 513.43 mg/dL, the GSH stood at 5.35 µmol/g and the HbA1c turned out to be 15.55%. Besides, in assay [5], the “Vitamin C” value turned out to be 0.13 mg %.
